Experimental data as given in patent US20120316247A1, “PREVENTION AND TREATMENT OF POST-OPERATIVE COGNITIVE DYSFUNCTION (POCD)” (priority 2009, published 2012).
“And” between values parts separate entries of the source, which are not always exact repeats. Identical values can stand only once. Like-named read-outs stand apart in the source and are kept apart here.

Tests used:
[1] = tested on: Aβ; conditions: 2-APB (10 mg/kg, FIG. 7D) before 3% sevoflurane for 6 h; neonatal naïve mice; sevoflurane alone 304%; P=0.042
Excerpt: (§1) The animal protocol was approved by the Standing Committee on Animals at Massachusetts General Hospital (Boston, Mass.). Naive mice (C57BL/6J mice [The JacksonLaboratory, Bar Harbor, Me.]) and Alzheimer's disease (AD) transgenic mice (B6.Cg-Tg[APPswe, PSEN1dE9]85 Dbo/J, [The Jackson Laboratory]) were distinguished by genotyping. All animals (3-12 mice per experiment) were 6 days old at the time of anesthesia and were randomized by weight and gender into experimental groups that received either 3 or 2.1% sevoflurane plus 60% oxygen for either 6 or 2 h, and control groups received 60% oxygen for 6 or 2 h at identical flow rates in identical anesthetizing chambers. […] Anesthetic and oxygen concentrations were measured continuously (Datex, Tewksbury, Mass.), and the temperature of the anesthetizing chamber was controlled to maintain the rectal temperature of the mice at 37°±0.5° C. In the interaction studies, the inositol trisphosphate receptor (IP3R) antagonist 2-aminoethoxydiphenyl borate (2-APB) (5 and 10 mg/kg) was administered to the mice via intraperitoneal injection 10 min before the anesthetic was administered. 2-APB was first dissolved in dimethyl sulfoxide to 20 μg/μl and then diluted with saline to 0.25 μg/μl (1:80 dilution) and to 0.5 μg/μl (1:40 dilution).
(§2) Data were expressed as mean±SD.

[2] = tested on: caspase-3; conditions: for sevoflurane-induced caspase-3 activation, percentage of control (100%): sevoflurane alone 356%; for caspase-3 activation, fold of control (1-fold): 3% sevoflurane for 6 h, FIG. 4B
Excerpt: as §1
(§3) Immediately after sevoflurane anesthesia, the mouse was decapitated, and the brain cortex was harvested. The brain tissues were homogenized in an immunoprecipitation buffer (10 mM Tris-HCl, pH 7.4, 150 mM NaCl, 2 mM ethylenediaminetetraacetic acid, and 0.5% Nonidet P-40) plus protease inhibitors ([1 μg/ml aprotinin, 1 μg/ml leupeptin, and 1 μg/ml pepstatin A]; [Roche, Indianapolis, Ind.]). The lysates were collected, centrifuged at 13,000 rpm for 15 min, and quantified for total proteins by using the bicinchoninic acid protein assay kit (Pierce, Iselin, N.J.).
(§4) The harvested brain tissues were subjected to Western blots as described by Xie et al. (16). Briefly, 60 μg of each lysate was separated on sodium dodecyl sulfate polyacrylamide gel electrophoresis gels and transferred to polyvinylidene difluoride blots (Bio-Rad, Hercules, Calif.) using a semidry electrotransfer system (Amersham Biosciences, San Francisco, Calif.). The blot was incubated overnight at 4° C. with primary antibodies, followed by washes and incubation with appropriate secondary antibodies, and visualized with a chemoluminescence system. A caspase-3 antibody (1:1,000 dilution; Cell Signaling Technology, Danvers, Mass.) was used to recognize the caspase-3 fragment (17-20 kDa) resulting from cleavage at aspartate position 175 and fulllength (FL) caspase-3 (35-40 kDa). TNF-α levels were recognized by antibody ab6671 (26 kDa; 1:1,000; Abcam, Cambridge, Mass.). The antibody to nontargeted protein β-actin was used to control for loading differences in total protein amounts. The figures showing blots with only the caspase-3 fragment are the same Western blots with extended exposure time during the development of the film. The signal of the Western blot band was detected using Molecular Imager VersaDoc MP 5000 System (Bio-Rad). The intensity of signals was analyzed using a Bio-Rad image program (Quantity One) and a National Institutes of Health Image Version 1.37 (National Institutes of Health, Bethesda, Md.). Western blots were quantified using two steps. First, levels of β-actin was used to normalize (e.g., determining the ratio of FL caspase-3 amount to β-actin amount) the levels of proteins to control for loading differences in total protein amounts.

[3] = tested on: Aβ40 and Aβ42 oligomerization
Method: (§5) To this end, H4 human neuroglioma cells stably transfected to express human full-length wild-type APP (H4-APP cells) in cell culture media with […] Aβ40, Aβ42 or Aβ40 plus Aβ42, were treated with an clinically relevant concentration of propofol (e.g., 100 μM) for one hour, and then with 2% isoflurane (plus 21% O2 and 5% CO2) for six hours. Wild-type H4 human neuroglioma cells (H4 naïve cells) and primary neurons from naïve (C57BL/6) mice were also used in the study for comparison. To obtain primary neurons, naïve (C57BL/6) mice with gestation stage of day 15 were euthanized with CO2. The primary neurons were harvested from the embyros. The harvested neurons were cultured for 7 to 10 days prior to treatment.
(§6) Anesthesia machine was used for the delivery of 2% isoflurane to the cells or neurons plated in a six well plate in a sealed plastic box located in a 37° C. incubator and Datex infrared gas analyzer was used for the monitoring (FIGS. 9A to 9C). The cells and the cell culture media were harvested at the end of the treatment. Caspase-3 activation and Aβ oligomerization were measured with quantitative Western blotting. Chemiluminescence signal from the western blot membranes was captured using a VersaDoc Imaging System and images were analyzed using Quantity One software (BioRad Hercules, Calif.).
In addition to the propofol effects on caspase-3 activation, its effects on Aβ oligomerization were assessed. H4-APP cell culture media were exposed to 2% isoflurane with and without 100 μM propofol for six hours. Antibody mAb 6E10 (1:3,000, Sigma) was used to detect Aβ40 and Aβ42 oligomerization.

[4] = tested on: H4-APP cells
Method: as §5, §6
(§7) Apoptosis is a programmed cell death requiring cysteine proteases called caspases, and caspase-3 activation is one of the final steps of apoptosis. Thus, a caspase-3 antibody (Cell Signaling, Danvers, Mass.) was used to recognize full-length (35 kDa), and the large fragment of cleaved caspase-3 (17-20 kDa).

[5] = tested on: H4 naïve cells; conditions: propofol before 2% isoflurane, FIG. 11
Method: as §5, §6, §7

[6] = tested on: primary neurons from naïve (C57BL/6) mice; conditions: propofol before 2% isoflurane, gestation day 15, FIG. 12
Method: as §5, §6, §7

[7] = tested on: TUNEL-positive cells (apoptosis) in the brain tissues; assay: TUNEL staining of brain sections of neonatal mice; assay type: in vivo; conditions: 3% sevoflurane plus 60% oxygen for 6 h, FIG. 5B
Method: Terminal Deoxynucleotidyl Transferase dUTP Nick End Labeling Staining Assay. […] The mouse brain tissues were removed and exposed to immersion fixation for 24 h at 4° C. in 4% paraformaldehyde, and then 5-μm paraffin-embedded sections were made from the brain tissues. TMRred kit (Roche, Palo Alto, Calif.) was used for terminal deoxynucleotidyl transferase dUTP nick end labeling (TUNEL) staining. Briefly, the brain sections were incubated in a permeabilization solution and then incubated with a TUNEL reaction mixture. Finally, the sections were incubated with 10 μg/ml Hoechst 33342 in a humidified dark chamber. The sections from the same brain areas between control group mice and the sevoflurane-treated mice were then analyzed in a mounting medium under a fluorescence microscope. The TUNEL-positive cells and total cells in five areas of the brain section from each of the mice in the experiments were counted blind-fold under a 20× objective microscope lens. For the double immunocytochemistry staining to identify the cell type of the TUNEL-positive cells, the mouse brain tissues were quickly removed after sevoflurane anesthesia, put into a container with dry ice and ethanol, and then kept in a −80° C. freezer. Five-micrometer frozen sections were cut using a cryostat. […] Finally, the sections were mounted and immediately viewed using a fluorescence microscope.
as §2

[8] = Mortality of neonatal mice after sevoflurane anesthesia; assay type: in vivo; conditions: 6-day-old mice
Method: Naive mice (C57BL/6J mice [The JacksonLaboratory, Bar Harbor, Me.]) and Alzheimer's disease (AD) transgenic mice (B6.Cg-Tg[APPswe, PSEN1dE9]85 Dbo/J, [The Jackson Laboratory]) were distinguished by genotyping. All animals (3-12 mice per experiment) were 6 days old at the time of anesthesia and were randomized by weight and gender into experimental groups that received either 3 or 2.1% sevoflurane plus 60% oxygen for either 6 or 2 h, and control groups received 60% oxygen for 6 or 2 h at identical flow rates in identical anesthetizing chambers. […] The high concentration of sevoflurane anesthesia was used to illustrate the difference of sevoflurane-induced neurotoxicity between neonatal naïve and AD transgenic mice. […] Anesthetic and oxygen concentrations were measured continuously (Datex, Tewksbury, Mass.), and the temperature of the anesthetizing chamber was controlled to maintain the rectal temperature of the mice at 37°±0.5° C.

[9] = tested on: amyloid precursor protein (APP); conditions: mouse, in vivo
Excerpt: as §1, §3, §4

[10] = tested on: apoptosis in the developing rat brain; conditions: intraventricular injection, Wei and Xie, 6 Curr. Alzheimer Res. 30 (2009); cited from earlier work

With NCCOB(c1ccccc1)c1ccccc1 [2-APB, 2-aminoethoxydiphenyl borate] the “sevoflurane-induced increase in Aβ levels, percentage of control” value [1] was 157%, the “sevoflurane-induced caspase-3 activation, percentage of control (100%)” value ([2]; 5 mg/kg 2-APB i.p. 10 min before 3% sevoflurane for 6 h, neonatal naïve mice, P=0.001) was 149% and the “sevoflurane-induced caspase-3 activation, percentage of control (100%)” value ([2]; 10 mg/kg 2-APB i.p. 10 min before 3% sevoflurane for 6 h, neonatal naïve mice, P=0.005) was 115%.

In the case of CC(C)c1cccc(C(C)C)c1O [propofol, 2,6-diisopropylphenol], the “effect on isoflurane-induced Aβ40 (oligomerization)” value ([3]; 100 μM propofol for one hour prior to 2% isoflurane, H4-APP cells, FIG. 14B) is reported as “attenuated”, the “effect on isoflurane-induced Aβ42 (oligomerization)” value ([3]; 100 μM propofol for one hour prior to 2% isoflurane, H4-APP cells, FIG. 14C) is reported as “attenuated” and the “Aβ oligomerization by propofol alone” value ([3]; propofol alone, no isoflurane) is reported as “did not induce”. The “effect on isoflurane-induced caspase-3 activation” value ([4]; 100 μM propofol for one hour prior to 2% isoflurane for six hours, H4-APP cells, FIG. 10) was “attenuated isoflurane-induced caspase-3 activation”, the “caspase-3 activation by propofol alone” value ([4]; propofol alone, no isoflurane) was “did not induce” and the “effect on isoflurane-induced caspase-3 activation” value [5] was “did not attenuate”. The “effect on isoflurane-induced caspase-3 activation” value [6] was “did not attenuate”.

In the case of FCOC(C(F)(F)F)C(F)(F)F [sevoflurane], the “TUNEL-positive cells (apoptosis), fold of control (1-fold)” value ([7]; neonatal AD transgenic mice) is reported as 2.13 fold and 2.45 fold, the “TUNEL-positive cells (apoptosis), fold of control (1-fold)” value ([7]; neonatal naïve mice, P=0.001) is reported as 2.08 fold and the “death of the mice” value ([8]; 2.1% sevoflurane) is reported as “did not cause the death of the mice”. For the same compound, the “mortality rate of the mice” value ([8]; 3% sevoflurane plus 60% oxygen for 6 h) was 10-15%, the “caspase-3 activation, percentage of control (100%)” value ([2]; 2.1% sevoflurane for 6 h, neonatal AD transgenic mice, FIG. 2D, P=0.045) was 178% and the “caspase-3 activation, percentage of control (100%)” value ([2]; 2.1% sevoflurane for 6 h, neonatal naïve mice, FIG. 2B, P=0.002) was 183%. For the same compound, the “caspase-3 activation, percentage of control (100%)” value ([2]; 3% sevoflurane for 2 h, neonatal naïve mice, FIG. 3B, P=0.074 (did not increase)) was 128%, the “caspase-3 activation, fold of control (1-fold)” value ([2]; neonatal AD transgenic mice) was 2.45 fold and 2.13 fold and the “caspase-3 activation, fold of control (1-fold)” value ([2]; neonatal naïve mice, P=0.003) was 1.48 fold. The “caspase-3 activation, percentage of control (100%)” value ([2]; 3% sevoflurane for 6 h alone, neonatal naïve mice, 2-APB interaction study, FIG. 7B, P=0.002) was 356%, the “increase in caspase-3 cleavage (activation), ratio of cleaved caspase-3 fragment to FL-caspase-3, compared with control” value ([2]; 3% sevoflurane plus 60% oxygen for 6 h, 6-day-old neonatal naïve mice, FIG. 1B, P=0.009) was 242% and the “decrease in the ratio of APP-C83 to APP-FL compared with control” value [9] was 45%. The “decrease in the ratio of APP-C99 to APP-FL compared with control” value [9] was 33%.

For C1CCC[C@H]2CCCN3CC[C@@H](CCCCCC[C@@H]4CCCN5CC[C@@H](CC1)O[C@@H]45)O[C@@H]23 [xestospongin C], the “effect on isoflurane-induced apoptosis” value [10] is listed as “inhibits isoflurane-induced apoptosis”.
